Here are results for eleven compounds from ChEMBL document CHEMBL1201862, “PubChem BioAssay data set” (2004).

What all share (experiment): DTP human tumour cell line panel, 48 h
In test [1] the test system is SK-OV-3.
For test [2], the system named is LOX IMVI.
In test [3] the test system is SK-MEL-5.
Test [4] relates to K562.
Test [5] concerns SR.
Test [6] has as its system TK-10.
The test system of test [7] is SF-539.
Test [8] relates to SF-295.
The subject of test [9] is HOP-62.
For test [10], the system named is Malme-3M.
For test [11], the system named is CCRF-CEM.
Test [12] has as its system HCC 2998.
Test [13] has as its system MCF7.
In test [14] the test system is MOLT-4.
Test [15] relates to SK-MEL-2.
For test [16], the system named is CAKI-1.
The test system of test [17] is UACC-62.
Test [18] has as its system Hs-578T.
Test [19] relates to NCI-H23.
The subject of test [20] is SNB-75.

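A five-concentration, 48-hour dose response in 96-well plates underlies each endpoint, interpolated linearly between surrounding concentrations. At the GI50, growth is halved.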 Calls of active or inactive are those of the source. Rule as the data show it: active = GI50 up to about 1.1 µM and inactive = higher. A value given as a limit tells only on which side of the number the result lay.

Regarding `COc1ccc2cc(-c3ccc(OC)c(OC)c3)c(=O)oc2c1`, the GI50 in test [1], in test [2], in [3], in [4], in test [5] and in [6] was > 100 µM (inactive) in each case. For the same compound, the GI50 (commonly the concentration giving 50% growth inhibition) is > 100 µM (inactive) in test [7]; 53.1 µM (inactive) in [8]; 69.5 µM (inactive) in test [9]; > 100 µM (inactive) in [10]; > 100 µM (inactive) in test [11]; > 100 µM (inactive) in test [12]. Besides, the GI50 is > 100 µM (inactive) in test [13]; > 100 µM (inactive) in [14]; > 100 µM (inactive) in test [15]; > 100 µM (inactive) in test [16]; > 100 µM (inactive) in test [17]; 29.3 µM (inactive) in [18]. Besides, in test [19], the GI50 was > 100 µM (inactive).
Regarding `CN(C)CCNC(=O)Cn1cc([N+](=O)[O-])c(=O)c2ccccc21`, the GI50 is > 100 µM (inactive) in test [1]; > 100 µM (inactive) in [3]; > 100 µM (inactive) in [4]; > 100 µM (inactive) in [5]; > 100 µM (inactive) in [6]; 58.3 µM (inactive) in test [20]. Besides, the GI50 in test [7], in [8], in test [9], in [10], in test [11] and in test [12] was > 100 µM (inactive) in each case. Also, the GI50 in [13], in test [14], in test [15], in test [16], in [17] and in [18] was > 100 µM (inactive) each time. In test [19], the GI50 is > 100 µM (inactive).
With `CCCC1CC(=O)NC(=O)C1C(=O)OC(C)(C)C` (stereo not drawn), the GI50 was > 100 µM (inactive) in test [2]; > 100 µM (inactive) in [3]; > 100 µM (inactive) in test [4]; 64.7 µM (inactive) in [5]; > 100 µM (inactive) in [6]; > 100 µM (inactive) in [20]. Moreover, the GI50 in test [8], in test [9], in test [10], in test [12], in [13] and in test [14] was > 100 µM (inactive) throughout. The GI50 in test [15], in test [16], in [17], in [18] and in test [19] was > 100 µM (inactive) throughout.
In the case of `COc1ccc(C2C(C#N)=C(S)N(C3OC(CO)C(O)C(O)C3O)C(C)=C2C(C)=O)cc1` (stereo not drawn), the GI50 in test [2] was > 100 µM (inactive); in test [3] it was 42.2 µM (inactive); in [4] it was 59.4 µM (inactive); in test [5], 56.9 µM (inactive); in [6], > 100 µM (inactive); in test [20] it was 42.7 µM (inactive). Further, the GI50 in test [7], in [8], in test [9], in [10], in test [11] and in test [12] was > 100 µM (inactive) throughout. For the same compound, the GI50 in test [13] is > 100 µM (inactive); in [14], 40.8 µM (inactive); in [15], > 100 µM (inactive); in test [17], 86.1 µM (inactive); in test [18] it was > 100 µM (inactive); in test [19], > 100 µM (inactive).
Turning to `Cc1c2ccccc2cc2nc3ccccc3n12`, the GI50 in [1] was > 10 µM (inactive); in test [3], > 10 µM (inactive); in [4] it was > 10 µM (inactive); in test [5], > 10 µM (inactive); in [6], 0.00668 µM (active); in test [20], > 10 µM (inactive). The GI50 in test [7], in test [8], in [9], in test [10], in test [11] and in [12] was > 10 µM (inactive) each time. Besides, the GI50 in [13], in test [14], in [15], in test [16], in test [17] and in [18] was > 10 µM (inactive) throughout. In test [19], the GI50 is > 10 µM (inactive).
Consider `CCN(CCN(CC)C(=O)NC)C(=O)NC`, for which the GI50 in test [1], in [2], in [3], in [4], in [5] and in test [6] was > 100 µM (inactive) in each case. In addition, the GI50 in test [20], in test [8], in test [9], in test [10], in [11] and in test [12] was > 100 µM (inactive) each time. The GI50 in [13], in test [14], in test [15], in test [17], in [18] and in [19] was > 100 µM (inactive) throughout.
`COc1ccc(NC(=O)NNS(=O)(=O)c2ccc(C)cc2)cc1`: the GI50 is > 100 µM (inactive) in [1]; 74 µM (inactive) in [3]; > 100 µM (inactive) in [4]; 63 µM (inactive) in test [5]; > 100 µM (inactive) in [6]; 29.4 µM (inactive) in [20]. Besides, the GI50 in test [7], in [8], in test [9], in [10], in [11] and in test [12] was > 100 µM (inactive) in each case. In addition, the GI50 in test [13] was > 100 µM (inactive); in [14], > 100 µM (inactive); in [15] it was > 100 µM (inactive); in [16], > 100 µM (inactive); in [17], 70 µM (inactive); in test [18], > 100 µM (inactive). For the same compound, the GI50 in [19] is 52.8 µM (inactive).
Turning to `O=C1c2sc(-c3ccc(Cl)cc3)cc2-n2cccc21`, the GI50 in [1], in [2], in test [3], in [4], in test [5] and in test [6] was > 100 µM (inactive) in each case. In addition, the GI50 in [20], in test [8], in test [9], in [10], in [11] and in [12] was > 100 µM (inactive) throughout. The GI50 in test [13], in test [14], in [15], in test [16], in test [17] and in [18] was > 100 µM (inactive) in each case.
For `C=C(C)C1Cc2c(cc3c(c2O)c(=O)c2ccccc2n3C)O1` (stereo not drawn), the GI50 in test [1] is 4.97 µM (inactive); in test [3], 2.38 µM (inactive); in [4] it was 1.79 µM (inactive); in test [5], 1.16 µM (inactive); in test [6], 13.9 µM (inactive); in test [20], 4.5 µM (inactive). Further, the GI50 in test [7] was 2.4 µM (inactive); in test [8], 5.78 µM (inactive); in [9], 9.12 µM (inactive); in test [10], 1.63 µM (inactive); in [11], 0.724 µM (active); in test [12], 12.1 µM (inactive). For the same compound, the GI50 in test [13] is 2.94 µM (inactive); in test [14], 0.372 µM (active); in test [15] it was 5.42 µM (inactive); in test [16], 2.99 µM (inactive); in [17], 2.34 µM (inactive); in test [18], 6.3 µM (inactive). In addition, the GI50 in [19] is 2.36 µM (inactive).
Regarding `C#CCSC(C=C=C)P(=O)(OC(C)C)OC(C)C` (stereo not drawn), the GI50 in test [1] was > 100 µM (inactive); in test [2] it was > 100 µM (inactive); in test [3], > 100 µM (inactive); in test [4] it was 23.7 µM (inactive); in test [5], 39.5 µM (inactive); in [6], 43.2 µM (inactive). Also, the GI50 in [20] is > 100 µM (inactive); in test [8], > 100 µM (inactive); in [9] it was > 100 µM (inactive); in test [10], 31.4 µM (inactive); in [12], 28.4 µM (inactive); in test [13] it was 33.7 µM (inactive). Moreover, the GI50 was 21.5 µM (inactive) in test [14]; > 100 µM (inactive) in test [15]; > 100 µM (inactive) in [16]; > 100 µM (inactive) in test [17]; 12.9 µM (inactive) in test [18]; > 100 µM (inactive) in test [19].
`Cc1cc(O)nc2c3c(ccc12)OC(C)(C)C=C3`: the GI50 in test [1] is 11.3 µM (inactive); in [3], 3.82 µM (inactive); in test [4], 4.22 µM (inactive); in [5], 2.44 µM (inactive); in test [6], > 100 µM (inactive); in test [20], 5 µM (inactive). In addition, the GI50 in test [7] is 3.27 µM (inactive); in test [8] it was 10.3 µM (inactive); in test [9], 8.2 µM (inactive); in test [10], 13.2 µM (inactive); in [11] it was 3.71 µM (inactive); in test [12], 9.55 µM (inactive). Besides, the GI50 in test [13] is 3.48 µM (inactive); in test [14] it was 5.16 µM (inactive); in test [15], 10.2 µM (inactive); in test [16] it was 5.93 µM (inactive); in test [17], 5.01 µM (inactive); in test [18] it was 3.52 µM (inactive). Also, the GI50 in [19] is 5.46 µM (inactive).
